In patent US9289405B2, “Compounds provided with antioxidant activity against free radicals, and pharmaceutical and cosmetic compositions containing them” (GIULIANI S.P.A, priority 2010, dated 2016):
Structures can show the parent of a compound that is named as a salt.

Columns and labels:
THP-1 cells = assay: Modulation of the production of ROS induced by LPS, cytofluorometry with DCFH; assay type: cell-based, human; conditions: 1 hour treatment, serum-free medium, LPS 0.1 μg/ml, compared with Trolox 100 μM, FIG. 1
Protocol: (§1) Two cellular systems were used: NCTC 2544, a line of human keratinocytes, and THP-1, a human promyelocytic line. The results were expressed as mean±standard deviation. Each experiment was repeated at least twice.
Tributyltin (TBT) and lipopolysaccharide (LPS) are used as […] inducers of radical species. The production of ROS was evaluated by cytofluorometry techniques for the THP-1 cell line, using DCFH as stain.
The optimum times and concentrations for cytofluorometric measurement of ROS were identified in preliminary experiments.
The vitamin E derivative 6-hydroxy-2,5,7,8-tetramethylchroman-2-carboxylic acid (Trolox), at a concentration of 100 μM, was used as positive control.
The THP-1 cells were treated for 1 hour with compounds 1 and 2 of the invention at a concentration of 100 μg/ml, with compound 3 at a concentration of 200 μg/ml and with Trolox 100 μM in serum-free medium, loaded in the last 30 minutes with DCFH (10 μM) and then treated in the presence or absence of LPS (0.1 μg/ml) and analysed in the cytofluorometer.

NCTC 2544 cells = assay: Lipid lipoperoxidation induced by TBT, malondialdehyde content via thiobarbituric acid; assay type: cell-based, human; conditions: 24 hours pre-treatment at maximum tolerated concentration, then TBT 2.5 μM for 24 hours, FIG. 2
Protocol: as §1
Lipid peroxidation was evaluated on the NCTC 2544 cells by measuring the content of malondialdehyde, one of the main by-products of lipid peroxidation, through its reactivity with thiobarbituric acid. The results are expressed as absorbance/mg protein. The protein content was evaluated by the Bradford method.
The NCTC cells were treated for 24 hours in the presence or in the absence of the maximum tolerated concentration of said compounds 1, 2, 3, and then stimulated with TBT 1-2.5 μM for a further 24 hours.
Trolox 100 μM was used as positive control.

Row | SMILES | production of ROS induced by LPS (THP-1 cells; compound at 100 μg/ml) | lipoperoxidation induced by TBT (malondialdehyde content) (NCTC 2544 cells) | production of ROS induced by LPS (THP-1 cells; compound at 200 μg/ml)
1 | C/C=C/C=C/C=C/C(=O)O [compound 1, 2E,4E,6E-octatrienoic acid] | nullifying the production of ROS induced by LPS 0.1 μg/ml to an extent not less than Trolox | statistically significant (p<0.05) decrease of lipoperoxidation | –
2 | C/C=C/C=C/C=C/C(=O)[O-].[K+] [compound 2, potassium 2E,4E,6E-octatrienoate] | nullifying the production of ROS induced by LPS 0.1 μg/ml to an extent not less than Trolox | statistically significant (p<0.05) decrease of lipoperoxidation | –
3 | C/C=C/C=C/C=C/C(=O)O [compound 3, 2E,4E,6E-octatrienoic acid, L-lysine salt] | – | – | nullifying the production of ROS induced by LPS 0.1 μg/ml to an extent not less than Trolox
